Laboratory results taken from paper PMC3815326 (Microbial biotechnology, 2012).
Entries after “also recorded” stand apart in the source; their conditions may differ. Where two headings read alike, the source gives them in different places.

Tests used:
TodS = conditions: agonist / antagonist classification, ref Busch et al., 2007, cited from earlier work
TmoS [1] = molecular target: T1, TmoS (Ectopseudomonas mendocina, UniProt Q8KIY1); assay type: biochemical, Pseudomonas mendocina KR1
TmoS [2] = molecular target: T1, TmoS; assay: Isothermal titration calorimetry of purified TmoS with effector molecules; assay type: binding, Pseudomonas mendocina KR1; conditions: for TΔS / affinity / binding to TmoS, in words / ΔH: TmoS
TmoS [3] = assay: as above; assay type: binding, Pseudomonas mendocina KR1; conditions: TodS values from Busch et al., 2007
CitA = conditions: read-out: KD for CitA; determined by ITC; ref Kaspar et al., 1999; cited from earlier work
T4MO = T4MO substrate; ref Mitchell et al., 2002; cited from earlier work
[4] = 100 µM effector, time course (Fig. 4B and C)
[5] = 100 µM effector (saturating), 30 min, 10 µM TmoS, 4°C
[6] = ITC, typically 10 µM TmoS titrated with 500 µM effector, pH 7.5

T1 sequence (Q8KIY1 whole entry): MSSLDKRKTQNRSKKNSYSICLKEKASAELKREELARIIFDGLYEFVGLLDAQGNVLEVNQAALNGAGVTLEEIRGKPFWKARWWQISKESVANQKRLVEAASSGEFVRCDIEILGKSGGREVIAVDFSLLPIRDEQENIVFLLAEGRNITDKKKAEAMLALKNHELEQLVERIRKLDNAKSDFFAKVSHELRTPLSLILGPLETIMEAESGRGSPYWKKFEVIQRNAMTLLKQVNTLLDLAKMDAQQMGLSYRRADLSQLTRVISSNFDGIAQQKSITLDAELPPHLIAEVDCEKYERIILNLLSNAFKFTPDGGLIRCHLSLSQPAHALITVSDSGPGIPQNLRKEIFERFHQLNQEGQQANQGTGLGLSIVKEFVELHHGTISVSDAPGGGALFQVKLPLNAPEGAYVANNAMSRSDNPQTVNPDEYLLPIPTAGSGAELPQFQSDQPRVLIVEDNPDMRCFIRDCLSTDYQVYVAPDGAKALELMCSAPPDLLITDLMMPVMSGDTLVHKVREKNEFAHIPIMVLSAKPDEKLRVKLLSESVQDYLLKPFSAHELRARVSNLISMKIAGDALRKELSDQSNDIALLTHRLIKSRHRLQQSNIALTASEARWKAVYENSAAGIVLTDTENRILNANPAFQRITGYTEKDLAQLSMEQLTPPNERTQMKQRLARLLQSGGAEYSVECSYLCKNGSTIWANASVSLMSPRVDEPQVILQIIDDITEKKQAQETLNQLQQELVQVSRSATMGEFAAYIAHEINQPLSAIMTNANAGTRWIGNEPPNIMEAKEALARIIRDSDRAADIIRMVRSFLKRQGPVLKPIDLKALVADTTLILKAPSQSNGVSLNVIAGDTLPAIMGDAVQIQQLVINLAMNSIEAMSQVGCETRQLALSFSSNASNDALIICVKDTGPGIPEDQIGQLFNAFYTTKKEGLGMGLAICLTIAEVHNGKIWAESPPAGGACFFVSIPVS

Compound	Effect on TodS (TodS)	Kd (TmoS [2]) [nM]	TΔS (TmoS [2]; ITC)	affinity / binding to TmoS, in words (TmoS [2]; ITC)	ΔH (TmoS [2]; ITC)	affinity for TmoS relative to TodS (TmoS [3])	further results
Cc1ccc(C)c(C)c1 [1,2,4 Trimethylbenzene]	Antagonist	3460 ± 500	5.6 ± 0.2 kcal/mol	tight binding	-1.5 ± 0.2 kcal/mol		TmoS phosphorylation state in presence of effector versus control (TmoS [1]): very similar to the control; also recorded: failed to increase
Cc1cccc(Cl)c1 [m‐Chlorotoluene]	Agonist	2070 ± 600	1.5 ± 0.8 kcal/mol		-5.9 ± 0.9 kcal/mol		
chlorotoluene							stimulation of TmoS autokinase activity in kinetics experiment (TmoS [1]; [4]): significantly inferior
Cc1ccccc1C [o‐xylene]	Antagonist	290 ± 10			-8.9 ± 0.1 kcal/mol		Effect on TodS (TodS; listed as o‐ xylene): antagonists; TmoS phosphorylation state in presence of effector versus control (TmoS [1]; [5]): very similar to the control; also recorded: failed to increase; also recorded: did not trigger an increase
CCc1ccccc1 [Ethylbenzene]	Agonist		4.1 ± 0.1 kcal/mol		-3.5 ± 0.1 kcal/mol	tighter	TmoS phosphorylation state in presence of effector versus control (TmoS [1]; [5]): increased phosphorylation; Kd (TmoS [2]; KD, ITC, typically 10 µM TmoS titrated with 500 µM effector, pH 7.5): 1560 ± 100 nM
O=[N+]([O-])c1ccccc1 [Nitrobenzene]	Agonist	230 ± 30	4.5 ± 0.1 kcal/mol	nanomolar range	-4.1 ± 0.1 kcal/mol	29 times	
O=C(O)CC(O)(CC(=O)O)C(=O)O [citrate]							Kd (CitA): 5500 nM
Cc1ccccc1Cl [o‐Chlorotoluene]	Antagonist		2.4 ± 0.9 kcal/mol		-5.1 ± 0.9 kcal/mol		Effect on TodS (TodS; listed as o‐chlorotoluene): antagonists; TmoS phosphorylation state in presence of effector versus control (TmoS [1]; [5]): very similar to the control; also recorded: failed to increase; also recorded: did not trigger an increase; Kd (TmoS [2]; [6]): 2140 ± 400 nM
c1ccccc1 [Benzene]	Agonist	170	3.6 ± 0.1 kcal/mol	nanomolar range	-5.3 ± 0.1 kcal/mol	around 4.5 times	TmoS phosphorylation state in presence of effector versus control (TmoS [1]): increased phosphorylation; stimulation of TmoS autokinase activity in kinetics experiment (TmoS [1]): significantly inferior
Cc1cccc(C)c1 [m‐xylene]	Agonist	710 ± 90	1.1 ± 0.6 kcal/mol				
Cc1ccc(C)cc1 [p‐xylene]	Agonist	460 ± 50	4.9 ± 0.29 kcal/mol		-3.4 ± 0.3 kcal/mol		
Cc1ccc(Cl)cc1 [p‐Chlorotoluene]	Agonist		5.3 ± 0.1 kcal/mol	nanomolar range	-2.7 ± 0.1 kcal/mol		
Clc1ccccc1 [Chlorobenzene]	Agonist	1250 ± 70			-6.9 ± 0.3 kcal/mol	comparable	TmoS phosphorylation state in presence of effector versus control (TmoS [1]): increased phosphorylation
Cc1ccccc1 [Toluene]			2.4 ± 0.1 kcal/mol		-6.5 ± 0.1 kcal/mol		TmoS phosphorylation state in presence of effector versus control (TmoS [1]; [5]): most pronounced increase; TmoS phosphorylation state in presence of effector versus control (TmoS [1]; 100 µM effector (saturating), 30 min, 10 µM TmoS, 4°C, listed as toluene): increased phosphorylation; time of maximal TmoS phosphorylation (TmoS [1]; 100 µM effector, kinetics of autophosphorylation): 40 min; stimulation of TmoS autokinase activity in kinetics experiment (TmoS [1]; [4]): most pronounced increase; Km (T4MO): 4 µM
C=Cc1ccccc1 [Styrene]	Agonist	810 ± 100	3.3 ± 0.3 kcal/mol	nanomolar range	-4.8 ± 0.3 kcal/mol	comparable	
C1CCCCC1 [cyclohexane]	No binding		No binding	failed to bind	No binding		KA (TmoS [2]; [6]): No binding; KD (TmoS [2]; [6]): No binding
